“Also recorded” adds a separate entry of the source.
How the values were obtained:
[1] = test system: Salmonella typhimurium strains; details: cited from earlier work
[2] = another study; cited from earlier work
[3] = test system: rats; details: rat, in vivo; cited from earlier work
[4] = test system: mice; details: mouse, in vivo; cited from earlier work
[5] = test system: hamsters; details: cited from earlier work
[6] = test system: isolated mouse islets; assay: insulin secretion from isolated mouse islets; assay type: cell-based; details: for glucose-stimulated insulin secretion: 16.7 mmol/l, 10^−9-10^−3 mol/l; for maximal stimulatory dose: NMRI mouse islets
Procedure: Islet from 6-10 NMRI mice were isolated and incubated in the presence of 16.7 mmol/l and 10^−9-10^−3 mol/l stevioside or 10^−9-10^−3 mol/l steviol. The results of these tests are illustrated in FIGS. 4a and 4b where each column represents mean±SEM from 24 incubations of single islets. Black bars in FIG. 4a indicate that stevioside is present and hatched bars indicate that stevioside is absent. Grey bars in FIG. 4b indicate that steviol is present and hatched bars indicate that steviol is absent. The influence of the maximal stimulatory doses of 10^−3 mol/l stevioside and 10^−6 mol/l steviol was studied in NMRI mouse islets over a range between 0 and 16.7 mmol/l glucose. […] Black bars in FIG. 7a indicate that stevioside is present and hatched bars indicate that stevioside is absent. Grey bars in FIG. 7b indicate that steviol is present and hatched bars indicate that steviol is absent.

[7] = test system: rats; assay: intravenous administration to rats; details: rat, in vivo
[8] = test system: Goto-Kakizaki rats; assay: four-week test diets with glucose tolerance test in Goto-Kakizaki rats; assay type: in vivo, rat
Procedure: In the following example is the term “Soy” defined as a composition comprising 65 weight-% soy protein, at least 0.2 weight-% isoflavones and 18 weight-% soy dietary fibres, mostly cotyledon fibres. “Altromin” is a standard carbohydrate rich laboratory animal diet.” Four test diets, A, B, C and D as defined below, were administered for four weeks to four groups of adult rats. A: Altromin; n=12 (Alt). B: Altromin supplemented with stevioside; n=12; (Alt+Ste). C: 80% Soy plus 20% Altromin; n=12; (Soy). D: 80% Soy plus 20% Altromin plus stevioside; n=12; (Soy+Ste) Each experimental group consisted of twelve female Goto-Kakizaki with an age of 9 weeks. The rats received the stevioside (0.025 g/kg body weight/day) with the drinking water. By the end of the third experimental week intra-arterial catheters were implanted into the carotid artery thereby enabling blood sampling during a 240 minutes glucose-tolerance test which was carried out by the end of the experiment at week 4. Blood samples were drawn after a bolus infusion of 2.0 g D-glucose/kg body weight. Plasma concentrations of glucose, insulin, and glucagon were measured during the glucose tolerance test. Immediately before the glucose tolerance test fasting levels of triglycerides and cholesterol were determined. Concomitantly, the systolic blood pressure was measured using a tail cuff. (Plasma glucose was measured using MPR 3, 166 391, Glucose/GOD-PAP Method from Boehringer Mannheim) (Plasma insulin was measured using Sensitive Rat Insulin RIA, Cat # SRI-13K from Linco) (Plasma glucagon was measured using Glucagon RIA, Cat # GL-32K from Linco) (Blood pressure was measured using TSE Non-Invasive Blood Pressure Monitoring System from Technical Scientific Equipment GmbH) (Plasma cholesterol was measured GOD-PAP from Roche and triglycerides was measured using GHOD-PAP from Roche)

[9] = test system: isolated normal pancreatic rat islets; details: 7 mmol/l D-glucose, 1,0 mmol/l; cited from earlier work
[10] = test system: hamsters; details: doses as high as 2.5 g/kg body weight/day; cited from earlier work
[11] = stevioside infusion at normal blood glucose; assay type: in vivo; details: bolus or constant intravenous infusion
[12] = isolated perfused rat liver; cited from earlier work
[13] = test system: GK rats; assay: blood pressure during 6 weeks treatment of GK rats; assay type: in vivo, rat; details: 0.025 g/kg body weight/24 h in drinking water
Procedure: GK rats were treated with stevioside 0.025 g/kg body weight/24 h for 6 weeks. Stevioside was administered in the drinking water. GK rats receiving drinking water with 0.111 g D-glucose/kg body weight/24 h served as controls. Systolic (FIG. 6a, control: O-O series, stevioside-treated: {circle over (2)}-{circle over (2)} series) and diastolic (FIG. 6b, control: O-O series, stevioside-treated: {circle over (2)}-{circle over (2)} series) blood pressures were measured on the tail.

[14] = test system: spontaneously hypertensive rats; details: intravenously 200 mg/kg; cited from earlier work
[15] = test system: GK rats; assay: i.v. glucose tolerance test in GK rats; assay type: in vivo, rat
Procedure: In the following examples, the type II diabetic Goto-Kakizaki (GK) rats originated from Takeda Chemical Ind., Tokyo, Japan and were bred locally.
As examples of the effects of a compound including the chemical formulas II, stevioside was tested on normal Wistar rats and on GK rats. 2.0 g glucose/kg body weight and 0.2 g stevioside/kg body weight were dissolved in 0.9% saline and infused intravenously. The plasma glucose and insulin levels were measured over a period of 2 hours.
The results are shown in FIGS. 2a, 2b, 3a and 3b, were the O-O series (n=6 for Wistar and n=14 for GK) illustrate glucose infused alone and the {circle over (2)}-{circle over (2)} series (n=6 for Wistar and n=12 for GK) illustrate the combined glucose and stevioside infusion. Data are given as mean±SEM.
During a glucose tolerance test, an intravenous bolus of stevioside of 0.2 g/kg body weight was injected in GK rats (the {circle over (2)}-{circle over (2)} serie (n=6)). GK rats receiving 0.9% saline intravenously served as controls (the O-O serie (n=6)). Glucose 2.0 g/kg body weight was administered as a bolus at timepoint 0 min. The plasma glucagon responses are shown as mean±SEM in FIGS. 5a (control) and 5b (GK). The plasma glucagon was suppressed in the stevioside treated GK rat.

[16] = test system: F344 rats; details: cited from earlier work
[17] = rats; cited from earlier work
[18] = test system: type II diabetic patients; assay: acute paired cross-over test meal study; assay type: in vivo, human; details: 1 g orally with standard meal
Excerpt: Twelve type II diabetic patients (4 female/8 males) with a mean age of 65.8±1.6 years, a diabetes duration of 6.0±1.3 years, a mean body mass index of 28.5±1.0, and a mean glycated hemoglobin HbAlc of 7.4+0.4 percent were included in the study. The experiment was an acute, paired, cross-over study in which two test meals were served during the experiments (A: Standard meal supplemented with 1 g of stevioside given orally; B: Standard meal given together with 1 g of gelatine (placebo) given orally. The total energy content of the test meals was 1725 kJ (protein 16 E %, fat 30 E %, carbohydrate 54 E %). Blood samples were drawn from an antecubital vein 30 minutes before and 240 minutes after ingestion of the test meal. The arterial blood pressure was continuously monitored during the experiment. Students paired t-test was used for comparing the effects of stevioside with placebo on the parameters measured. Data are given as mean±SEM.

## C=C1C[C@@]23CC[C@H]4[C@@](C)(CCC[C@@]4(C)C(=O)O)[C@@H]2CC[C@]1(O)C3 [steviol]
[1]
  mutagenic effect: no mutagenic effect
[2]
  mutagenicity: dose-related positive responses
[3]
  LD50: higher than 15 g/kg body weight
[4]
  LD50: higher than 15 g/kg body weight
[5]; hamster, in vivo
  LD50: 5-6 g/kg body weight
[5]; hamsters
  pathology accompanying lethal dose: degeneration of the proximal tubular cells
[6]
  stimulation of insulin secretion, steviol compared with stevioside: stimulate the insulin secretion to a greater extent
  glucose-stimulated insulin secretion: capable of potentiating glucose-stimulated insulin secretion
  maximal stimulatory dose: 10^−6 mol/l
[7]
  effect when administered intravenously to rats: anti-hyperglycemic, glucagonostatic and insulinotropic effect

## C=C1C[C@@]23CC[C@H]4[C@@](C)(CCC[C@@]4(C)C(=O)O[C@@H]4O[C@H](CO)[C@@H](O)[C@H](O)[C@H]4O)[C@@H]2CC[C@]1(O[C@@H]1O[C@H](CO)[C@@H](O)[C@H](O)[C@H]1O[C@@H]1O[C@H](CO)[C@@H](O)[C@H](O)[C@H]1O)C3 [stevioside]
[1]
  mutagenic effect: no mutagenic effect
[8]; both Altromin and soy groups
  area under the plasma-glucagon response curve, in words: significantly reduced
[8]; glucose tolerance test
  area under the glucose response curve, in words: reduced the incremental area (IAUC) under the glucose response curve
  first phase insulin response, in words: significantly improved the first phase insulin responses
  insulin response curve 0 to 240 minutes, in words: did not alter the insulin responses
[8]; rat, in vivo
  fasting triglyceride levels, in words: significant suppression of the fasting triglyceride levels
[8]; stevioside in combination with Altromin
  suppression of the systolic blood pressure (Δ): −28 mmHg
[8]; stevioside in combination with soy
  suppression of the systolic blood pressure (Δ): −21 mmHg
[9]
  insulin output: significant increase in insulin output
[10]
  effect on growth or reproduction: no effect on growth or reproduction
[11]
  hypoglycemia: did not cause any hypoglycemia
[2]
  mutagenicity: not mutagenic
[12]
  metabolism: not metabolised
[13]
  time of treatment after which decrease in blood pressure was detectable: 2 weeks
[13]; 6 weeks, systolic and diastolic, tail
  decrease in the blood pressure: 10-15%
[14]
  fall in the systolic blood pressure: only small
[6]
  glucose-stimulated insulin secretion: capable of potentiating glucose-stimulated insulin secretion
  maximal stimulatory dose: 10^−3 mol/l
[15]; 2.0 g glucose/kg + 0.2 g stevioside/kg i.v.
  time after which significant decrease of plasma glucose was observed: 30 min
[15]; 2.0 g glucose/kg + 0.2 g stevioside/kg i.v., 2 hours
  plasma glucose response: inhibited blood glucose responses; also recorded: diminished glucose response
[15]; 2.0 g glucose/kg + 0.2 g stevioside/kg i.v., compared to the Wistar rat
  plasma insulin response: pronounced increase in the insulin response
[15]; i.v. bolus 0.2 g/kg, glucose 2.0 g/kg
  plasma glucagon response: suppressed
[16]
  carcinogenicity: not carcinogenic
[17]
  route of excretion: excreted by the urine
[18]
  absolute IAUC postprandial blood glucose: 522±64 mmol/l x 240 min
  insulin response (IAUC): the difference did not reach statistical significance
  postprandial glucagon levels: 281±33
  reduction of postprandial blood glucose response compared to placebo: 18±5%
[7]
  effect when administered intravenously to rats: anti-hyperglycemic, glucagonostatic and insulinotropic effect

— patent US20040081712A1, “Substance for treatment of non-insulin dependent diabetes mellitus, hypertension and/or the metabolic syndrome” (priority 2001, published 2004)
